Results as given in ChEMBL document CHEMBL4000224, “Cadiolides J-M, antibacterial polyphenyl butenolides from the Korean tunicate Pseudodistoma antinboja” (2017).
≈ marks a conversion by molar mass, not a printed value. Calls of active or inactive are those of the source. The calls are words filed in the database; no cut-off is given here.

Assays:
Type in all cases: functional
Staphylococcus aureus [1] = experiment: Anti-bacterial activity against methicillin-susceptible Staphylococcus aureus CCARM 3640 by 2-fold microtiter broth dilution method
Staphylococcus aureus [2] = experiment: Anti-bacterial activity against methicillin-susceptible Staphylococcus aureus CCARM 0204 by 2-fold microtiter broth dilution method
Staphylococcus aureus [3] = experiment: Anti-bacterial activity against methicillin-susceptible Staphylococcus aureus CCARM 0205 by 2-fold microtiter broth dilution method
Staphylococcus aureus [4] = experiment: Anti-bacterial activity against methicillin-susceptible Staphylococcus aureus CCARM 0027 by 2-fold microtiter broth dilution method
Staphylococcus aureus [5] = experiment: Anti-bacterial activity against methicillin-resistant Staphylococcus aureus CCARM 3635 by 2-fold microtiter broth dilution method
Staphylococcus aureus [6] = experiment: Anti-bacterial activity against methicillin-resistant Staphylococcus aureus CCARM 3089 by 2-fold microtiter broth dilution method
Staphylococcus aureus [7] = experiment: Anti-bacterial activity against methicillin-resistant Staphylococcus aureus CCARM 3634 by 2-fold microtiter broth dilution method
Staphylococcus aureus [8] = experiment: Anti-bacterial activity against methicillin-resistant Staphylococcus aureus CCARM 3090 by 2-fold microtiter broth dilution method
Escherichia coli = experiment: Anti-bacterial activity against Escherichia coli ATCC 11775 by 2-fold microtiter broth dilution method; conditions: DSM 30083 = JCM 1649 = ATCC 11775
Klebsiella pneumoniae = experiment: Anti-bacterial activity against Klebsiella pneumoniae ATCC 4352 by 2-fold microtiter broth dilution method
Salmonella typhimurium = experiment: Anti-bacterial activity against Salmonella typhimurium ATCC 14028 by 2-fold microtiter broth dilution method; conditions: Salmonella enterica subsp. enterica serovar Typhimurium

Compound `CN[C@H](CC(C)C)C(=O)N[C@H]1C(=O)N[C@@H](CC(N)=O)C(=O)N[C@H]2C(=O)N[C@H]3C(=O)N[C@H](C(=O)N[C@H](C(=O)O)c4cc(O)cc(O)c4-c4cc3ccc4O)[C@H](O)c3ccc(c(Cl)c3)Oc3cc2cc(c3O[C@@H]2O[C@H](CO)[C@@H](O)[C@H](O)[C@H]2O[C@H]2C[C@](C)(N)[C@H](O)[C@H](C)O2)Oc2ccc(cc2Cl)[C@H]1O` [VANCOMYCIN] has an MIC (Staphylococcus aureus [1]) of 0.25 µg/mL (≈ 0.173 µM), an MIC (Staphylococcus aureus [2]) of 0.25 µg/mL (≈ 0.173 µM) and an MIC (Staphylococcus aureus [3]) of under 0.13 µg/mL.

For `C[C@]12C[C@@]34C=CC(=O)[C@@](C)(CCC(=O)Nc5c(O)ccc(C(=O)O)c5O)[C@@H]3[C@H](C[C@@H]1C4)O2`, the MIC (Staphylococcus aureus [4]) was 4 µg/mL (≈ 9.06 µM), the MIC (Staphylococcus aureus [5]) was 8 µg/mL (≈ 18.1 µM) and the MIC (Staphylococcus aureus [1]) was 8 µg/mL (≈ 18.1 µM). It also gave an MIC (Staphylococcus aureus [6]) of 8 µg/mL (≈ 18.1 µM), an MIC (Staphylococcus aureus [7]) of 8 µg/mL (≈ 18.1 µM) and an MIC (Staphylococcus aureus [2]) of 4 µg/mL (≈ 9.06 µM). It also gave an MIC (Staphylococcus aureus [8]) of 8 µg/mL (≈ 18.1 µM) and an MIC (Staphylococcus aureus [3]) of 4 µg/mL (≈ 9.06 µM).

`COc1c(Br)cc([C@H](O)C2=C(c3cc(Br)c(O)c(Br)c3)/C(=C/c3ccc(O)c(Br)c3)OC2=O)cc1Br` showed an MIC (Staphylococcus aureus [4]) of 1 µg/mL (≈ 1.23 µM), an MIC (Staphylococcus aureus [5]) of 1 µg/mL (≈ 1.23 µM) and an MIC (Staphylococcus aureus [1]) of 1 µg/mL (≈ 1.23 µM). The Activity (Escherichia coli) was “inactive”, the MIC (Staphylococcus aureus [6]) was 2 µg/mL (≈ 2.47 µM) and the Activity (Klebsiella pneumoniae) was “inactive”. The Activity (Salmonella typhimurium) was “inactive”, the MIC (Staphylococcus aureus [7]) was 2 µg/mL (≈ 2.47 µM) and the MIC (Staphylococcus aureus [2]) was 1 µg/mL (≈ 1.23 µM). For the same compound, the MIC (Staphylococcus aureus [8]) was 2 µg/mL (≈ 2.47 µM) and the MIC (Staphylococcus aureus [3]) was 0.5 µg/mL (≈ 0.617 µM).

`O=C1O/C(=C\c2cc(Br)c(O)c(Br)c2)C(c2cc(Br)c(O)c(Br)c2)=C1[C@@H](O)c1cc(Br)c(O)c(Br)c1` was tested, and the MIC (Staphylococcus aureus [4]) was 2 µg/mL (≈ 2.28 µM), the MIC (Staphylococcus aureus [5]) was 1 µg/mL (≈ 1.14 µM) and the MIC (Staphylococcus aureus [1]) was 1 µg/mL (≈ 1.14 µM). The Activity (Escherichia coli) was “inactive”, the MIC (Staphylococcus aureus [6]) was 1 µg/mL (≈ 1.14 µM) and the Activity (Klebsiella pneumoniae) was “inactive”. The Activity (Salmonella typhimurium) was “inactive”, the MIC (Staphylococcus aureus [7]) was 1 µg/mL (≈ 1.14 µM) and the MIC (Staphylococcus aureus [2]) was 1 µg/mL (≈ 1.14 µM). It also gave an MIC (Staphylococcus aureus [8]) of 1 µg/mL (≈ 1.14 µM) and an MIC (Staphylococcus aureus [3]) of 1 µg/mL (≈ 1.14 µM).

Compound `CCCCCCCCCC(=O)N[C@@H](Cc1c[nH]c2ccccc12)C(=O)N[C@@H](CC(N)=O)C(=O)N[C@@H](CC(=O)O)C(=O)N[C@@H]1C(=O)NCC(=O)N[C@@H](CCCN)C(=O)N[C@@H](CC(=O)O)C(=O)N[C@H](C)C(=O)N[C@@H](CC(=O)O)C(=O)NCC(=O)N[C@H](CO)C(=O)N[C@@H]([C@H](C)CC(=O)O)C(=O)N[C@@H](CC(=O)c2ccccc2N)C(=O)O[C@@H]1C` [DAPTOMYCIN] has an MIC (Staphylococcus aureus [4]) of 16 µg/mL (≈ 9.87 µM), an MIC (Staphylococcus aureus [5]) of over 32 µg/mL and an MIC (Staphylococcus aureus [1]) of 16 µg/mL (≈ 9.87 µM). The MIC (Staphylococcus aureus [6]) was over 32 µg/mL, the MIC (Staphylococcus aureus [7]) was over 32 µg/mL and the MIC (Staphylococcus aureus [2]) was 4 µg/mL (≈ 2.47 µM). It also gave an MIC (Staphylococcus aureus [8]) of over 32 µg/mL and an MIC (Staphylococcus aureus [3]) of 2 µg/mL (≈ 1.23 µM).

In the case of `COc1ccc(C=C2OC(=O)C([C@@H](O)c3cc(Br)c(OC)c(Br)c3)=C2c2cc(Br)c(O)c(Br)c2)cc1`, the MIC (Staphylococcus aureus [4]) is reported as 4 µg/mL (≈ 5.36 µM), the MIC (Staphylococcus aureus [5]) is reported as 4 µg/mL (≈ 5.36 µM) and the MIC (Staphylococcus aureus [1]) is reported as 8 µg/mL (≈ 10.7 µM). The Activity (Escherichia coli) was “inactive”, the MIC (Staphylococcus aureus [6]) was 4 µg/mL (≈ 5.36 µM) and the Activity (Klebsiella pneumoniae) was “inactive”. For the same compound, the Activity (Salmonella typhimurium) was “inactive”, the MIC (Staphylococcus aureus [7]) was 4 µg/mL (≈ 5.36 µM) and the MIC (Staphylococcus aureus [2]) was 4 µg/mL (≈ 5.36 µM). It also gave an MIC (Staphylococcus aureus [8]) of 8 µg/mL (≈ 10.7 µM) and an MIC (Staphylococcus aureus [3]) of 4 µg/mL (≈ 5.36 µM).

With `COc1ccc(C=C2OC(=O)C([C@@H](O)c3cc(Br)c(OC)c(Br)c3)=C2c2cc(Br)c(O)c(Br)c2)cc1Br` the MIC (Staphylococcus aureus [4]) was 4 µg/mL (≈ 4.85 µM), the MIC (Staphylococcus aureus [5]) was 4 µg/mL (≈ 4.85 µM) and the MIC (Staphylococcus aureus [1]) was 4 µg/mL (≈ 4.85 µM). The Activity (Escherichia coli) was “inactive”, the MIC (Staphylococcus aureus [6]) was 8 µg/mL (≈ 9.7 µM) and the Activity (Klebsiella pneumoniae) was “inactive”. The Activity (Salmonella typhimurium) was “inactive”, the MIC (Staphylococcus aureus [7]) was 4 µg/mL (≈ 4.85 µM) and the MIC (Staphylococcus aureus [2]) was 4 µg/mL (≈ 4.85 µM). For the same compound, the MIC (Staphylococcus aureus [8]) was 4 µg/mL (≈ 4.85 µM) and the MIC (Staphylococcus aureus [3]) was 2 µg/mL (≈ 2.42 µM).

Compound `COc1c(Br)cc([C@H](O)C2=C(c3ccc(O)c(Br)c3)/C(=C/c3cc(Br)c(O)c(Br)c3)OC2=O)cc1Br` has an MIC (Staphylococcus aureus [4]) of 4 µg/mL (≈ 4.93 µM), an MIC (Staphylococcus aureus [5]) of 4 µg/mL (≈ 4.93 µM) and an MIC (Staphylococcus aureus [1]) of 4 µg/mL (≈ 4.93 µM). For the same compound, the Activity (Escherichia coli) was “inactive”, the MIC (Staphylococcus aureus [6]) was 4 µg/mL (≈ 4.93 µM) and the Activity (Klebsiella pneumoniae) was “inactive”. The Activity (Salmonella typhimurium) was “inactive”, the MIC (Staphylococcus aureus [7]) was 4 µg/mL (≈ 4.93 µM) and the MIC (Staphylococcus aureus [2]) was 2 µg/mL (≈ 2.47 µM). The MIC (Staphylococcus aureus [8]) was 4 µg/mL (≈ 4.93 µM) and the MIC (Staphylococcus aureus [3]) was 2 µg/mL (≈ 2.47 µM).
